The values that follow come from patent US20020019527A1 (priority 2000, published 2002).

Where a name gives a salt, the structure may show the parent alone.

T1 sequence (P49355 whole entry, one chain of several): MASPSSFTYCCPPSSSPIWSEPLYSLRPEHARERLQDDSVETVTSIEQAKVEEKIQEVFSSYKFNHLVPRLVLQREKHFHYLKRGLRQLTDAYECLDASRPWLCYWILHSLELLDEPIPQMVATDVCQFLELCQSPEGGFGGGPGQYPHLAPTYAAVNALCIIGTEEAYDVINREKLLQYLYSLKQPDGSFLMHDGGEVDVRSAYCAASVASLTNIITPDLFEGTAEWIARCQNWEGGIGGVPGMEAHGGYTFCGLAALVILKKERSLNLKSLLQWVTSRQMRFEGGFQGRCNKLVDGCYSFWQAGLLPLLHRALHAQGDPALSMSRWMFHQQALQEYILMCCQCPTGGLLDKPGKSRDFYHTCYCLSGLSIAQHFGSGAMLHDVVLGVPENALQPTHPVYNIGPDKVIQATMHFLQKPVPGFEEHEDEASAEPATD

This assay has as its target T1, Farnesyltransferase (FTase) (Bos taurus, UniProt P29702+P49355).
T1 construct: precipitation from a beef brain homogenate; from tissue; host or cells: bovine brain
Put plainly: Farnesyltransferase inhibition (scintillation proximity assay, [3H]-FPP / biotin-K-ras peptide). The format is biochemical, bovine. The following applies: compound at 10^−6 M; bovine FTase, 37° C., 30 minutes. A digest of the protocol:
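Read-out: [3H]-FPP prenylation of a biotinylated K-ras peptide by SPA, measured 1 h after quenching. Enzyme: FTase purified from bovine brain (ammonium sulfate cut, DEAE Sepharose), free of GGTase I and II. Test compounds in ethanol, diluted 10-fold into the reaction.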
The inhibition is how much of the control response was suppressed. Higher therefore signals strong suppression. Consider `Cn1cncc1CN(CCCc1ccccc1)c1ccc(C#N)c(-c2cccc3ccccc23)c1` [Example 230, 4-(((1-methyl-1H-imidazol-5-yl)methyl)(3-phenylpropyl)amino)-2-(1-naphthyl)benzonitrile], for which the inhibition at 1 µM came out at 100%.

In turn, `Cn1cncc1CN(Cc1ccc(C#N)cc1)c1ccc(C#N)c(-c2cccc3ccccc23)c1` [Example 231, 4-((4-cyanobenzyl)((1-methyl-1H-imidazol-5-yl)methyl)amino)-2-(1-naphthyl)benzonitrile] came in with an inhibition at 1 µM of 100%.

In the case of `Cn1cncc1CN(Cc1ccccc1)c1ccc(C#N)c(-c2cccc3ccccc23)c1` [Example 232, 4-(benzyl((1-methyl-1H-imidazol-5-yl)methyl)amino)-2-(1-naphthyl)benzonitrile], the inhibition at 1 µM amounted to 100%.

For the compound `CCCCCCN(Cc1cncn1C)c1ccc(C#N)c(-c2cccc3ccccc23)c1` [Example 233, 4-(hexyl((1-methyl-1H-imidazol-5-yl)methyl)amino)-2-(1-naphthyl)benzonitrile], testing at 1 µM gave an inhibition of 100%.

For the compound `Cn1cncc1CNc1ccc(C#N)c(-c2cccc3ccccc23)c1` [Example 234, 4-(((1-methyl-1H-imidazol-5-yl)methyl)amino)-2-(1-naphthyl)benzonitrile], the inhibition at 1 µM was 100%.

As to `Cn1cncc1CN(C(=O)c1ccccc1)c1ccc(C#N)c(-c2cccc3ccccc23)c1` [Example 235, N-(4-cyano-3-(1-naphthyl)phenyl)-N-((1-methyl-1H-imidazol-5-yl)methyl)benzamide], at 1 µM the inhibition was 100%.

Compound `Cc1ccccc1-c1cc(N(Cc2cncn2C)C(=O)c2ccccc2)ccc1C#N` [Example 236, N-(6-cyano-2′-methyl(1,1′-biphenyl)-3-yl)-N-((1-methyl-1H-imidazol-5-yl)methyl)benzamide] displayed an inhibition at 1 µM of 93%.

The compound `Cc1ccccc1-c1cc(N(Cc2cccc(C#N)c2)Cc2cncn2C)ccc1C#N` [Example 237, 5-((3-cyanobenzyl)((1-methyl-1H-imidazol-5-yl)methyl)amino)-2′-methyl(1,1′-biphenyl)-2-carbonitrile] had an inhibition at 1 µM of 100%.

`Cn1cncc1C(OCc1ccc(Cl)c(Cl)c1)c1ccc(C#N)c(-c2cccc3cccnc23)c1` (stereo not drawn) [Example 240, 4-(((3,4-dichlorobenzyl)oxy)(1-methyl-1H-imidazol-5-yl)methyl)-2-(8-quinolinyl)benzonitrile dihydrochloride] had an inhibition at 1 µM of 95%.

In general, % Inhibition refers to the share of the control response that was lost under treatment. Low readings indicate a weak effect, high ones a strong effect. `Cl.Cl.Cn1cncc1C(OCc1ccc(C(F)(F)F)c(F)c1)c1ccc(C#N)c(-c2cccc3cccnc23)c1` (stereo not drawn) [Example 241, 4-(((3-fluoro-4-(trifluoromethyl)benzyl)oxy)(1-methyl-1H-imidazol-5-yI)methyl)-2-(8-quinolinyl)benzonitrile dihydrochloride]: the “% Inhibition at 10^−6M” value is on record as 98%.

As to `Cn1cncc1C(OCc1ccc(F)c(C(F)(F)F)c1)c1ccc(C#N)c(-c2cccc3cccnc23)c1` (stereo not drawn) [Example 242, 4-(((4-fluoro-3-(trifluoromethyl)benzyl)oxy)(1-methyl-1H-imidazol-5-yl)methyl)-2-(8-quinolinyl)benzonitrile dihydrochloride], testing at 1 µM gave an inhibition of 98%.

The compound `Cn1cncc1C(OCc1ccc(C(=O)O)cc1)c1ccc(C#N)c(-c2cccc3cccnc23)c1` (stereo not drawn) [Example 243, 4-(((4-cyano-3-(8-quinolinyl)phenyl)(1-methyl-1H-imidazol-5-yl)methoxy)methyl)benzoic acid dihydrochloride] gave an inhibition at 1 µM of 82%.

Take `Cn1cncc1C(OCc1ccc(C(N)=O)cn1)c1ccc(C#N)c(-c2cccc3cccnc23)c1` (stereo not drawn) [Example 244, 6-(((4-cyano-3-(8-quinolinyl)phenyl)(1-methyl-1H-imidazol-5-yl)methoxy)methyl)nicotinamide trihydrochloride]: 1 µM produced 90% inhibition.

On to `Cn1cncc1C(OCc1ccc(C(=O)O)cn1)c1ccc(C#N)c(-c2cccc3cccnc23)c1` (stereo not drawn) [Example 245, 6-(((4-cyano-3-(8-quinolinyl)phenyl)(1-methyl-1H-imidazol-5-yl)methoxy)methyl)nicotinic acid trihydrochloride], for which 1 µM produced 90% inhibition.

`Cn1cncc1C(OCc1ncc(C(F)(F)F)cc1Cl)c1ccc(C#N)c(-c2cccc3cccnc23)c1` (stereo not drawn) [Example 246, 4-(((3-chloro-5-(trifluoromethyl)-2-pyridinyl)methoxy)(1-methyl-1H-imidazol-5-yl)methyl)-2-(8-quinolinyl)benzonitrile] showed an inhibition at 1 µM of 90%.

`Cn1cncc1C(OCc1ccc(C#N)cn1)c1ccc(C#N)c(-c2cccc3cccnc23)c1` (stereo not drawn) [Example 247, 6-(((4-cyano-3-(8-quinolinyl)phenyl)(1-methyl-1H-imidazol-5-yl)methoxy)methyl)nicotinonitrile trihydrochloride] showed an inhibition at 1 µM of 95%.

Regarding `Cn1cncc1C(OCc1ccc(Cl)c(Cl)c1)c1ccc(C#N)c(-c2ccccc2C(F)(F)F)c1` (stereo not drawn) [Example 248, 5-(((3,4-dichlorobenzyl)oxy)(1-methyl-1H-imidazol-5-yl)methyl)-2′-(trifluoromethyl)(1,1′-biphenyl)-2-carbonitrile hydrochloride], testing at 1 µM gave an inhibition of 98%.

`Cn1cncc1C(OCc1ccc(C(F)(F)F)c(F)c1)c1ccc(C#N)c(-c2ccccc2C(F)(F)F)c1` (stereo not drawn) [Example 249, 5-(((3-fluoro-4-(trifluoromethyl)benzyl)oxy)(1-methyl-1H-imidazol-5-yl)methyl)-2′-(trifluoromethyl)(1,1′-biphenyl)-2-carbonitrile hydrochloride] gave an inhibition at 1 µM of 98%.

`Cn1cncc1C(OCc1ccc(F)c(C(F)(F)F)c1)c1ccc(C#N)c(-c2ccccc2C(F)(F)F)c1` (stereo not drawn) [Example 250, 5-(((4-fluoro-3-(trifluoromethyl)benzyl)oxy)(1-methyl-1H-imidazol-5-yl)methyl)-2′-(trifluoromethyl)(1,1′-biphenyl)-2-carbonitrile hydrochloride] came in with an inhibition at 1 µM of 99%.

With `Cn1cncc1C(OCc1ccc(C#N)cn1)c1ccc(C#N)c(-c2ccccc2C(F)(F)F)c1` (stereo not drawn) [Example 251, 6-(((6-cyano-2′-(trifluoromethyl)(1,1′-biphenyl)-3-yl)(1-methyl-1H-imidazol-5-yl)methoxy)methyl)nicotinonitrile dihydrochloride], at 1 µM the inhibition was 99%.

Consider `Cn1cncc1C(OCc1ccc(C#N)c(-c2cccc3ccccc23)c1)c1ccccc1` (stereo not drawn) [Example 256, 4-(((1-methyl-1H-imidazol-5-yl)(phenyl)methoxy)methyl)-2-(1-naphthyl)benzonitrile hydrochloride], for which the inhibition at 1 µM is 94%.

Turning to `Cn1cncc1C(CCc1ccccc1)NCc1ccc(C#N)c(-c2cccc3ccccc23)c1` (stereo not drawn) [Example 260, 4(((1-(1-methyl-1H-imidazol-5-yl)-3-phenylpropyl)amino)methyl)-2-(1-naphthyl)benzonitrile dihydrochloride], the inhibition at 1 µM worked out at 90%.

In turn, `Cn1cncc1C(OCc1cccc(C#N)c1)c1ccc(C#N)c(-c2cccc3ccccc23)c1` (stereo not drawn) [Example 262, 4-(((3-cyanobenzyl)oxy)(1-methyl-1H-imidazol-5-yl)methyl)-2-(1-naphthyl)benzonitrile] yielded an inhibition at 1 µM of 100%.

In turn, `Cn1cncc1C(OCc1ccc(Br)cc1)c1ccc(C#N)c(-c2cccc3ccccc23)c1` (stereo not drawn) [Example 263, 4-(((4-bromobenzyl)oxy)(1-methyl-1H-imidazol-5-yl)methyl)-2-(1-naphthyl)benzonitrile] showed an inhibition at 1 µM of 100%.

`Cn1cncc1CN(Cc1cccc(Cl)c1)c1ccc(C#N)c(-c2cccc3ccccc23)c1` [Example 264, 4-((3-chlorobenzyl)((1-methyl-1H-imidazol-5-yl)methyl)amino)-2-(1-naphthyl)benzonitrile] yielded an inhibition at 1 µM of 100%.

`N#Cc1ccc(N(Cc2ccccc2)Cc2cnc[nH]2)cc1-c1cccc2ccccc12` [Example 265, 4-(benzyl(1H-imidazol-5-ylmethyl)amino)-2-(1-naphthyl)benzonitrile]: the inhibition at 1 µM stood at 100%.

Compound `Cn1cncc1CN(Cc1cccc(C#N)c1)c1ccc(C#N)c(-c2cccc3ccccc23)c1` [Example 266, 4-((3-cyanobenzyl)((1-methyl-1H-imidazol-5-yl)methyl)amino)-2-(1-naphthyl)benzonitrile] returned an inhibition at 1 µM of 100%.

`Cn1cncc1CN(c1ccc(C#N)c(-c2cccc3ccccc23)c1)S(=O)(=O)c1ccccc1` [Example 267, N-(4-cyano-3-(1-naphthyl)phenyl)-N-((1-methyl-1H-imidazol-5-yl)methyl)benzenesulfonamide]: testing at 1 µM gave an inhibition of 100%.

In the case of `COC(=O)c1ccc(CN(Cc2cncn2C)c2ccc(C#N)c(-c3cccc4ccccc34)c2)cc1` [Example 268, methyl 4-((4-cyano((1-methyl-1H-imidazol-5-yl)methyl)-3-(1-naphthyl)anilino)methyl)benzoate], the “% Inhibition at 10^−6M” value was 100%.

`Cn1cncc1CN(Cc1ccc(C(=O)O)cc1)c1ccc(C#N)c(-c2cccc3ccccc23)c1` [Example 269, 4-((4-cyano((1-methyl-1H-imidazol-5-yl)methyl)-3-(1-naphthyl)anilino)methyl)benzoic acid]: the “% Inhibition at 10^−6M” value was found to be 100%.

`Cc1ccccc1-c1cc(N(Cc2ccccc2)Cc2cnc[nH]2)ccc1C#N` [Example 270, 5-(benzyl(1H-imidazol-5-ylmethyl)amino)-2′-methyl(1,1′-biphenyl)-2-carbonitrile] displayed an inhibition at 1 µM of 100%.

Consider `COC(=O)c1cccc(CN(Cc2cncn2C)c2ccc(C#N)c(-c3cccc4ccccc34)c2)c1` [Example 271, methyl 3-((4-cyano((1-methyl-1H-imidazol-5-yl)methyl)-3-(1-naphthyl)anilino)methyl)benzoate], for which the “% Inhibition at 10^−6M” value was 100%.

`Cn1cncc1C(OCc1cccc(Cl)c1)c1ccc(C#N)c(-c2cccc3ccccc23)c1` (stereo not drawn) [Example 273, 4-((1-methyl-1H-imidazol-5-yl)((3-chlorobenzyl)oxy)methyl)-2-(1-naphthyl)benzonitrile hydrochloride] came in with an inhibition at 1 µM of 100%.
